{
  "source": "patent US20080025938A1",
  "about": "“Method and composition for permanently shaping hair” (priority 2006, published 2008)",
  "key": {"hair": {"test_system": "hair", "assay": "Permanent waving of hair on curlers with the composition, then oxidative fixing; assessed by hairdresser and customer", "format": "in vivo, human", "conditions": "used alone as the hair keratine reducing agent", "excerpt": "The method of permanent shaping of human hair according to the invention is defined as: A method for permanent shaping of hair, said method comprising the steps of: • (a) putting the hair in a desired shape; • (b) before and/or after the hair is put in the desired shape, applying an amount of a permanent shaping composition to the hair, and allowing the permanent shaping composition to act on the hair for a predetermined acting time sufficient for the permanent shaping of the hair; • (c) subsequently rinsing the hair with water or applying an intermediate treatment agent; • (d) performing an oxidative post-treatment of the hair; • (e) after the oxidative post-treatment, rinsing the hair with water and drying the hair, wherein said permanent shaping composition is a composition according to any-one of claims 1 to 13. Details of the method are given as follows. First the hair (which is washed and towel-dried) is separated into multiple sections and then these sections are rolled onto curlers. […] After the rolling on curlers is finished, the curlers are thoroughly wetted down using the required quantity of the permanent shaping composition, preferably about 60 g to about 120 g. […] The fixing composition is used in a quantity of about 50 g to about 200 g, preferably about 80 g to about 100 g, depending on hair thickness and length. […]"}, "[1]": {"conditions": "versus N-methylmercaptoacetamide and N-hydroxyethylmercaptoacetamide; cited from earlier work"}},
  "data": [
    {"compound": "O=C(CS)NCCCO", "note": "[N-(3′-hydroxypropyl)-2-mercapto-acetamide]", "values": [
      {"measurement": "fastness of the permanent shaped hair to humidity, particularly sweat", "setting": "hair", "value": "not sufficient"},
      {"measurement": "sensitization rates", "setting": "[1]", "value": "substantially lower sensitization rates"}
    ]}
  ]
}
